Source: PubChem BioAssay AID248 (DTP/NCI, 2004)
Toxic doses and inconclusive results are not listed. No stated cut-off is given here; in the data, active means T/C of 150% or more; inactive means T/C below 125%.

System: L1210 leukemia ip in BDF1 mice, survival T/C
Assay: NCI In Vivo Anticancer Drug Screen. Data for tumor model L1210 Leukemia (intraperitoneal) in B6D2F1 (BDF1) mice
Settings: endpoint: mean survival time, higher = longer survival
How it was run: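 Each compound was tested against a transplantable tumor grown in mice. The endpoint was survival, with treated animals benchmarked against vehicle controls as a simple ratio.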

[1] = dose: 100.0 mg/kg/injection, schedule: Q04DX003 (ip), vehicle: saline with Tween-80
[2] = dose: 200.0 mg/kg/injection, schedule: Q04DX003 (ip), vehicle: saline with Tween-80
[3] = dose: 400.0 mg/kg/injection, schedule: Q04DX003 (ip), vehicle: saline with Tween-80
[4] = dose: 100.0 mg/kg/injection, schedule: Q01DX009 (ip), vehicle: saline with Tween-80
[5] = dose: 200.0 mg/kg/injection, schedule: Q01DX009 (ip), vehicle: saline with Tween-80
[6] = dose: 100.0 mg/kg/injection, schedule: Q04DX003 (ip), vehicle: Klucel (hydroxypropylcellulose) (HPC)
[7] = dose: 200.0 mg/kg/injection, schedule: Q04DX003 (ip), vehicle: Klucel (hydroxypropylcellulose) (HPC)
[8] = dose: 400.0 mg/kg/injection, schedule: Q04DX003 (ip), vehicle: Klucel (hydroxypropylcellulose) (HPC)
[9] = dose: 100.0 mg/kg/injection, schedule: Q01DX001 (ip), vehicle: saline with Tween-80
[10] = dose: 100.0 mg/kg/injection, schedule: Q01DX009 (ip), vehicle: Klucel (hydroxypropylcellulose) (HPC)
[11] = dose: 200.0 mg/kg/injection, schedule: Q01DX009 (ip), vehicle: Klucel (hydroxypropylcellulose) (HPC)
[12] = dose: 400.0 mg/kg/injection, schedule: Q01DX009 (ip), vehicle: Klucel (hydroxypropylcellulose) (HPC)

Measured: T/C

CCC(=O)Nc1ccc(Cl)c(Cl)c1
inactive: [1] 95 % of control | [2] 93 % of control | [3] 92 % of control

CCCCN(CCCC)C(=O)C1C=C2c3cccc4[nH]cc(c34)CC2N(C#N)C1 (stereo not drawn)
inactive: dose: 25.0 mg/kg/injection, schedule: Q01DX009 (ip), vehicle: saline with Tween-80 97 % of control | dose: 50.0 mg/kg/injection, schedule: Q01DX009 (ip), vehicle: saline with Tween-80 91 % of control | [4] 94 % of control | [1] 101 % of control | [5] 87 % of control | [2] 100 % of control | [3] 96 % of control

O=[N+]([O-])c1ccccc1NC1c2ccccc2Oc2ccccc21
inactive: [6] 96 % of control | [7] 93 % of control | [8] 93 % of control

COc1ccc2[nH]c(-c3ccccc3)c(-c3ccccc3)c2c1
inactive: [4] 90 % of control | [1] 89 % of control | [2] 87 % of control | [3] 92 % of control

COc1cccc2c1C(=O)c1c(O)c3c(c(O)c1C2=O)CC(O)(C(C)=O)CC3OC1CC2NC(=O)OC2C(C)O1 (stereo not drawn)
inactive: [9] 114 % of control

CN(C)N=Nc1ccccc1[N+](=O)[O-]
inactive: dose: 30.0 mg/kg/injection, schedule: Q01DX009 (ip), vehicle: saline with Tween-80 99 % of control | dose: 50.0 mg/kg/injection, schedule: Q01DX001 (ip), vehicle: saline 103 % of control | dose: 53.0 mg/kg/injection, schedule: Q01DX009 (ip), vehicle: saline with Tween-80 118 % of control | dose: 60.0 mg/kg/injection, schedule: Q01DX009 (ip), vehicle: saline with Tween-80 106 % of control | dose: 100.0 mg/kg/injection, schedule: Q01DX001 (ip), vehicle: saline 101 % of control | dose: 119.0 mg/kg/injection, schedule: Q04DX003 (ip), vehicle: saline 107 % of control | dose: 120.0 mg/kg/injection, schedule: Q01DX009 (ip), vehicle: saline with Tween-80 113 % of control | dose: 178.0 mg/kg/injection, schedule: Q04DX003 (ip), vehicle: saline 118 % of control | dose: 267.0 mg/kg/injection, schedule: Q04DX003 (ip), vehicle: saline 92 % of control

Nc1nc2nc(-c3ccccc3)[nH]c2c(=O)[nH]1
inactive: [6] 98 % of control | [7] 101 % of control | [8] 93 % of control

CC1CCCC[N-]1.CC1CCCC[N-]1.[Cl][Pt+2][Cl] (stereo not drawn)
inactive: [10] 97 % of control | [6] 98 % of control | [11] 102 % of control | [7] 96 % of control | [8] 102 % of control

Cc1ncc(CO)c(C2NOCc3ncsc32)c1O (stereo not drawn)
inactive: dose: 6.25 mg/kg/injection, schedule: Q01DX009 (ip), vehicle: saline 89 % of control | dose: 6.25 mg/kg/injection, schedule: Q04DX003 (ip), vehicle: saline 102 % of control | dose: 12.5 mg/kg/injection, schedule: Q01DX001 (ip), vehicle: saline 101 % of control | dose: 12.5 mg/kg/injection, schedule: Q01DX009 (ip), vehicle: saline 97 % of control | dose: 12.5 mg/kg/injection, schedule: Q04DX003 (ip), vehicle: saline 106 % of control | dose: 25.0 mg/kg/injection, schedule: Q01DX001 (ip), vehicle: saline 102 % of control | dose: 25.0 mg/kg/injection, schedule: Q04DX003 (ip), vehicle: saline 93 % of control

CC(=O)OCC1OC(N2C(=O)/C(=C/c3cccs3)SC2=S)C(OC(C)=O)C(OC(C)=O)C1OC(C)=O (stereo not drawn)
inactive: dose: 25.0 mg/kg/injection, schedule: Q01DX005 (ip), vehicle: other 96 % of control | dose: 50.0 mg/kg/injection, schedule: Q01DX005 (ip), vehicle: other 100 % of control | dose: 100.0 mg/kg/injection, schedule: Q01DX005 (ip), vehicle: other 97 % of control | dose: 200.0 mg/kg/injection, schedule: Q01DX005 (ip), vehicle: other 88 % of control

C=CCc1cc(C)cc([N+](=O)[O-])c1OBr
inactive: [9] 89 % of control | [4] 97 % of control | dose: 200.0 mg/kg/injection, schedule: Q01DX001 (ip), vehicle: saline with Tween-80 88 % of control | [5] 98 % of control | dose: 400.0 mg/kg/injection, schedule: Q01DX001 (ip), vehicle: saline with Tween-80 93 % of control | dose: 400.0 mg/kg/injection, schedule: Q01DX009 (ip), vehicle: saline with Tween-80 93 % of control

Cc1cc(Cl)ccc1NC(=O)c1cccc(C(=O)Nc2ccc(Cl)cc2C)c1
inactive: [10] 97 % of control | [6] 98 % of control | [11] 92 % of control | [7] 90 % of control | [12] 87 % of control | [8] 93 % of control

O=C(NCN1C(=O)c2ccccc2C1=O)NCN1C(=O)c2ccccc2C1=O
inactive: [10] 95 % of control | [11] 102 % of control | [12] 92 % of control

N#CC1C2CCC(C2)C1CCCNCCCC1C2CCC(C2)C1C#N (stereo not drawn)
inactive: dose: 100.0 mg/kg/injection, schedule: Q04DX002 (ip), vehicle: saline 97 % of control | dose: 200.0 mg/kg/injection, schedule: Q04DX002 (ip), vehicle: saline 104 % of control
